Measurements reported in patent US8946266B2, “Substituted triazole and imidazole derivatives as gamma secretase modulators” (Janssen Pharmaceuticals, Inc., priority 2009, dated 2015).
Where two headings read alike, the source gives them in different places.

How the values were obtained:
Aβ42 = assay: γ-secretase-modulating activity, Method 2: Aβ42 Alphalisa in supernatant of SKNBE2 cells carrying APP 695-wild type (Table 3b); format: cell-based; conditions: overnight
Procedure, shortened: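 SKNBE2 cells expressing wild-type APP695 were incubated overnight at 37° C. with test compound. Secreted Aβ42 was then measured by AlphaLISA, using a C-terminal Aβ42 antibody paired with an N-terminal Aβ antibody. IC50 came from a 4-parameter fit of percent of compound-free control.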

Aβtotal = assay: γ-secretase-modulating activity, Method 2: Aβtotal Alphalisa in supernatant of SKNBE2 cells carrying APP 695-wild type (Table 3b); format: cell-based; conditions: overnight, read-out: IC50 Aβtot
Procedure, shortened: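 SKNBE2 cells expressing wild-type APP 695 were incubated overnight at 37 °C, 5% CO2 with test compound at a range of concentrations. Aβtotal in supernatant was measured by AlphaLISA sandwich (N-terminal JRF/AβN/25 acceptor, biotinylated mid-region 4G8 donor); IC50 from 4-parameter fit of percent control versus log concentration.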

Row | Structure (SMILES) | IC50 (Aβ42) [nM] | IC50 (Aβtotal) [µM] | IC50 (Aβ42; Homo sapiens) [nM] | IC50 (Aβtotal; Homo sapiens) [µM]
1 | COc1cc(-c2nc(Nc3ccnc(C(F)(F)F)c3)n(C)n2)ccc1-n1cnc(C)c1 [Compound 235] | 132 | > 10 | – | –
2 | COc1cc(-c2nc(Nc3cccnc3)n(C)n2)ccc1-n1cnc(C)c1 [Compound 237] | 3160 | > 10 | – | –
3 | COc1cc(-c2nc(Nc3ncccc3C(F)(F)F)n(C)n2)ccc1-n1cnc(C)c1 [Compound 240] | 794 | > 10 | – | –
4 | COc1cc(-c2nc(Nc3cccnc3OC)n(C)n2)ccc1-n1cnc(C)c1 [Compound 241] | 741 | > 10 | – | –
5 | COc1cc(-c2nc(Nc3ccc(=O)n(C)c3)n(C)n2)ccc1-n1cnc(C)c1 [Compound 242] | > 10000 | > 10 | – | –
6 | COc1cc(-c2nc(Nc3cccn(C)c3=O)n(C)n2)ccc1-n1cnc(C)c1 [Compound 243] | 8320 | > 10 | – | –
7 | COc1cc(-c2nc(Oc3ccccc3Cl)n(C(C)C)n2)ccc1-n1cnc(C)c1 [Compound 247] | 363 | 8.13 | – | –
8 | COc1cc(-c2nc(Oc3ccccc3Cl)n(C)n2)ccc1-n1cnc(C)c1 [Compound 248] | 389 | > 10 | – | –
9 | COc1cc(-c2nc3n(n2)CCCC3c2cccc(F)c2)ccc1-n1cnc(C)c1 (centres unmarked) [Compound 252] | 240 | > 10 | – | –
10 | COc1nc(-c2nc3n(n2)CCCC3c2ccc(F)cc2)ccc1-n1cnc(C)c1 (centres unmarked) [Compound 253] | 170 | > 10 | – | –
11 | COc1cc(-c2nc3n(n2)CCCC3c2ccccc2Cl)ccc1-n1cnc(C)c1 (centres unmarked) [Compound 256] | 21 | > 10 | – | –
12 | COc1cc(-c2nc3n(n2)CCCC3c2ccccc2F)ccc1-n1cnc(C)c1 (centres unmarked) [Compound 257] | 148 | > 10 | – | –
13 | COc1cc(-c2nc3n(n2)CCCC3c2ccccc2OC(F)(F)F)ccc1-n1cnc(C)c1 (centres unmarked) [Compound 266] | 74 | > 3 | – | –
14 | COc1cc(-c2nc3n(n2)CCCC3c2cccc(OC(F)(F)F)c2)ccc1-n1cnc(C)c1 (centres unmarked) [Compound 267] | 49 | > 10 | – | –
15 | COc1cc(-c2nc3n(n2)CCCC3c2ccc(C(F)(F)F)cc2)ccc1-n1cnc(C)c1 (centres unmarked) [Compound 268] | 141 | > 10 | – | –
16 | COc1cc(-c2nc3n(n2)CCCC3(O)c2ccc(F)cc2C)ccc1-n1cnc(C)c1 (centres unmarked) [Compound 269] | – | – | 148 | > 10
17 | COc1cc(-c2nc3n(n2)CCCC32CCCCC2)ccc1-n1cnc(C)c1 [Compound 270] | 170 | > 10 | – | –
18 | COc1cc(-c2nc3n(n2)CCN(C(C)=O)C3c2ccccc2C(F)(F)F)ccc1-n1cnc(C)c1 (centres unmarked) [Compound 276] | – | – | 832 | > 10
19 | COc1cc(-c2nc3n(n2)CCN(C(C)=O)C3c2cccc(C(F)(F)F)c2)ccc1-n1cnc(C)c1 (centres unmarked) [Compound 277] | 661 | > 10 | – | –
20 | COc1cc(-c2nc3n(n2)CCOC3c2ccc(F)cc2F)ccc1-n1cnc(C)c1 (centres unmarked) [Compound 282] | 380 | > 10 | – | –
21 | COc1cc(-c2nc3n(n2)CCCCC3c2ccccc2C(F)(F)F)ccc1-n1cnc(C)c1 (centres unmarked) [Compound 283] | 78 | 7.94 | – | –
22 | COc1cc(-c2nc3n(n2)CCCOC3c2ccccc2C(F)(F)F)ccc1-n1cnc(C)c1 (centres unmarked) [Compound 285] | 76 | > 10 | – | –

Row | Structure (SMILES) | IC50 (Aβ42) [nM] | IC50 (Aβtotal) [µM] | IC50 (Aβ42; Homo sapiens) [nM] | IC50 (Aβtotal; Homo sapiens) [µM]
23 | COc1cc(-c2nc3c(-c4ccccc4OC(F)(F)F)cccn3n2)ccc1-n1cnc(C)c1 [Compound 288] | 151 | > 10 | – | –
24 | COc1cc(-c2nc3c(-c4ccccc4)nccn3n2)ccc1-n1cnc(C)c1 [Compound 292] | 2340 | > 10 | – | –
25 | COc1cc(-c2nc3c(-c4cccc(C(F)(F)F)c4)nccn3n2)ccc1-n1cnc(C)c1 [Compound 293] | 2340 | > 10 | – | –
26 | COc1cc(-c2nc(-c3cc(C(F)(F)F)ccc3C)nn2C)ccc1-n1cnc(C)c1 [Compound 296] | 1510 | 6.03 | – | –
27 | COc1cc(-c2nc(-c3cc(Cl)ccc3C)n[nH]2)ccc1-n1cnc(C)c1 [Compound 297] | 263 | > 10 | – | –
28 | COc1cc(-c2nc(N3CCCN(C(C)=O)CC3)n(C(C)C)n2)ccc1-n1cnc(C)c1 [Compound 301] | > 10000 | > 10 | – | –
29 | COc1cc(-c2nc3n(n2)CCOC3c2ccc(F)cc2C)ccc1-n1cnc(C)c1 (centres unmarked) [Compound 305] | 646 | > 10 | – | –
30 | COc1cc(-c2nc(Nc3cc(C(=O)N(C)C)ccc3F)n(C)n2)ccc1-n1cnc(C)c1 [Compound 308] | 1700 | > 10 | – | –
31 | COc1cc(-c2nc(Nc3cc(S(C)(=O)=O)ccc3F)n(C)n2)ccc1-n1cnc(C)c1 [Compound 309] | 1070 | > 10 | – | –
32 | COc1cc(-c2nc(CNc3cccc(C(F)(F)F)c3)n(C)n2)ccc1-n1cnc(C)c1 [Compound 311] | 186 | 7.41 | – | –
33 | COc1nc(-c2nc3n(n2)CCCC3c2ccc(F)cc2C)ccc1-n1cnc(C)c1 (centres unmarked) [Compound 313] | 68 | > 10 | – | –
34 | COc1cc(-c2nc3n(n2)CCC[C@@H]3c2ccc(F)cc2C)ccc1-n1cnc(C)c1 [Compound 314] | 288 | > 10 | – | –
35 | COc1cc(-c2nc3n(n2)CCOC3c2ccccc2C(F)(F)F)ccc1-n1cnc(C)c1 (centres unmarked) [Compound 316] | 661 | > 10 | – | –
36 | COc1cc(-c2nc(Nc3cccc4c3OC(F)(F)O4)n(C)n2)ccc1-n1cnc(C)c1 [Compound 317] | 34 | 7.94 | – | –
37 | COc1c(-n2cnc(C)c2)ccc(-c2nc(Nc3ccccc3C)n(C)n2)c1F [Compound 318] | 240 | > 10 | – | –
38 | Cc1cn(-c2ccc(-c3nc(Nc4cc(C(F)(F)F)ccc4F)n(C)n3)nc2C)cn1 [Compound 319] | 490 | > 10 | – | –
39 | Cc1cn(-c2ccc(-c3nc(Nc4ccccc4C(F)(F)F)n(C)n3)cc2C#N)cn1 [Compound 321] | 182 | > 15 | – | –
40 | COc1cc(-c2nc(Nc3c(C)cccc3F)n(C)n2)ccc1-n1cnc(C)c1 [Compound 323] | 51 | > 10 | – | –
41 | COc1cc(-c2nc(Nc3ccccc3C(C)=O)n(C)n2)ccc1-n1cnc(C)c1 [Compound 324] | 1320 | > 10 | – | –
42 | COc1cc(-c2nc(N3CCOc4ccccc43)n(C)n2)ccc1-n1cnc(C)c1 [Compound 325] | 182 | > 10 | – | –
43 | COc1cc(-c2nc(N3CCCOc4ccccc43)n(C)n2)ccc1-n1cnc(C)c1 [Compound 327] | 1180 | > 10 | – | –
44 | CCOc1cc(C)c(Nc2nc(-c3ccc(-n4cnc(C)c4)c(OC)c3)nn2C)cc1C(C)C [Compound 328] | 7 | 0.145 | – | –

The remaining lines, values ahead:

Row | IC50 (Aβ42) [nM] | IC50 (Aβtotal) [µM] | IC50 (Aβ42; Homo sapiens) [nM] | IC50 (Aβtotal; Homo sapiens) [µM] | Structure (SMILES)
45 | 1580 | > 10 | – | – | COc1cc(-c2nc(Nc3ccc(C)nc3)n(C)n2)ccc1-n1cnc(C)c1 [Compound 238]
46 | 4470 | > 10 | – | – | COc1cc(-c2nc(Nc3ccnc(C)c3)n(C)n2)ccc1-n1cnc(C)c1 [Compound 239]
47 | 646 | > 10 | – | – | COc1cc(-c2nc(NCc3ccccc3)n(C)n2)ccc1-n1cnc(C)c1 [Compound 245]
48 | 269 | 9.77 | – | – | COc1cc(-c2nc(Oc3cccc(C(F)(F)F)c3)n(C)n2)ccc1-n1cnc(C)c1 [Compound 246]
49 | – | – | 646 | > 10 | COc1cc(-c2nc(Sc3cccc(C(F)(F)F)c3)n(C)n2)ccc1-n1cnc(C)c1 [Compound 249]
50 | 234 | > 10 | – | – | COc1cc(-c2nc3n(n2)CCC[C@@H]3c2ccccc2Cl)ccc1-n1cnc(C)c1 [Compound 254]
51 | 158 | > 10 | – | – | COc1cc(-c2nc3n(n2)CCCC3c2ccc(F)cc2F)ccc1-n1cnc(C)c1 (centres unmarked) [Compound 259]
52 | 324 | > 10 | – | – | COc1nc(-c2nc3n(n2)CCC[C@@H]3c2ccccc2C(F)(F)F)ccc1-n1cnc(C)c1 [Compound 262]
53 | 7590 | > 10 | – | – | COc1cc(-c2nc(Oc3ccccc3Cl)n(C)n2)ccc1-n1cnc(C)n1 [Compound 272]
54 | 155 | 10 | – | – | COc1cc(-c2nc(Nc3cccc(C(F)(F)F)c3)n(C)n2)ccc1-n1cnc(C)n1 [Compound 273]
55 | – | – | 155 | 8.71 | COc1cc(-c2nc3n(n2)CCC(c2ccccc2C(F)(F)F)N3)ccc1-n1cnc(C)c1 (centres unmarked) [Compound 274]
56 | – | – | 62 | > 10 | COc1cc(-c2nc3n(n2)CCOC3c2ccccc2C(F)(F)F)ccc1-n1cnc(C)c1 (centres unmarked) [Compound 279]
57 | 191 | > 10 | – | – | COc1cc(-c2nc3n(n2)CCOC3c2ccc(F)cc2C)ccc1-n1cnc(C)c1 (centres unmarked) [Compound 280]
58 | 229 | > 10 | – | – | COc1cc(-c2nc3n(n2)CCCOC3c2ccc(F)cc2)ccc1-n1cnc(C)c1 (centres unmarked) [Compound 284]
59 | 145 | 10 | – | – | COc1cc(-c2nc3c(-c4ccccc4Cl)cccn3n2)ccc1-n1cnc(C)c1 [Compound 286]
60 | 355 | > 10 | – | – | COc1cc(-c2nc3c(-c4cccc(OC(F)(F)F)c4)cccn3n2)ccc1-n1cnc(C)c1 [Compound 287]
61 | 708 | > 10 | – | – | COc1cc(-c2nc3c(Nc4cccc(C(F)(F)F)c4)cccn3n2)ccc1-n1cnc(C)c1 [Compound 289]
62 | 3090 | > 10 | – | – | COc1cc(-c2nc(-c3cc(Cl)ccc3C)nn2C)ccc1-n1cnc(C)c1 [Compound 298]
63 | 123 | > 10 | – | – | COc1cc(-c2nc3n(n2)CCCC3c2c(F)cc(F)cc2F)ccc1-n1cnc(C)c1 (centres unmarked) [Compound 312]
64 | 3090 | > 10 | – | – | COc1cc(-c2nc(-c3ccc4ccccc4n3)n(C)n2)ccc1-n1cnc(C)c1 [Compound 326]
